Like-named read-outs stand apart in the source and are kept apart here.
B1: huN901-IGN03 (conjugate, chains of the INN, looked up)
VH: QVQLVESGGGVVQPGRSLRLSCAASGFTFSSFGMHWVRQAPGKGLEWVAYISSGSFTIYYADSVKGRFTISRDNSKNTLYLQMNSLRAEDTAVYYCARMRKGYAMDYWGQGTLVTVSS
VL: DVVMTQSPLSLPVTLGQPASISCRSSQIIIHSDGNTYLEWFQQRPGQSPRRLIYKVSNRFSGVPDRFSGSGSGTDFTLKISRVEAEDVGVYYCFQGSHVPHTFGQGTKVEIK
modifications: IGN03 indolinobenzodiazepine payload

What was measured:
Ramos cells = assay: In vitro cytotoxicity, Ramos cells; type: cell-based; details: Homo sapiens, read-out: IC50, in vitro antiproliferative activity
From the text: (§1) The in vitro cytotoxicity of the cytotoxic compounds (e.g., indolinobenzodiazepine or oxazolidinobenzodiazepine), derivatives thereof, dimers thereof or conjugates thereof of the present invention can be evaluated for their ability to suppress proliferation of various cancerous cell lines in vitro (Tables 1, 2 in FIGS. 31, 32.). For example, cell lines such as the human breast carcinoma line SK-Br-3, or the human epidermoid carcinoma cell line KB, can be used for the assessment of cytotoxicity of these new compounds. Cells to be evaluated can be exposed to the compounds for 72 hours and the surviving fractions of cells measured in direct assays by known methods. IC50 values can then be calculated from the results of the assays.
(§2) Conjugates of cell-binding agents with cytotoxic agents of the invention can be evaluated for their ability to suppress proliferation of various unwanted cell lines in vitro. For example, cell lines such as the human colon carcinoma line COLO 205, the rhabdomyosarcoma cell line RH-30, and the multiple myeloma cell line MOLP-8 can be used for the assessment of cytotoxicity of these conjugates. Cells to be evaluated can be exposed to the compounds for 1-5 days and the surviving fractions of cells measured in direct assays by known methods. IC50 values can then be calculated from the results of the assays.
General Procedure Used: Samples of IGN Free Drugs or IGN Conjugates were added to 96-well flat bottomed tissue culture plates and titrated using serial dilutions to cover the desired molar range. Antigen positive (Ag+) or Antigen negative (Ag−) cells were added to the wells in specific cell densities in such a way that there were triplicate samples for each drug concentration for each corresponding cell line. The plates were then incubated at 37° C. in an atmosphere of 5% CO2 for 4-5 days depending on the cell line. COLO 205 (1,000 cells/well), Namalwa (3,000 cells/well)—4 days; RH30(1,000 cells/well), Ramos (10,000 cells/well), KB (1,000 cells/well)—5 days)
(§3) At the end of the incubation period cytotoxic potencies were then assessed using a WST-based cell viability assay and surviving cells were measured by developing with WST (2-7 hours). The absorbance in each well was measured and the surviving fraction of cells at each concentration was plotted to reveal the cytotoxicity and antigen specificity (of the conjugates).

[1] = system: single stranded DNA (ssDNA); assay: DNA probe assay control with single stranded DNA; type: binding; details: control experiments
Experimental: (§4) Reaction conditions: dsDNA ([…] final concentration) in 100 mM TRIS, 1 mM EDTA, pH 8 was mixed with 3.7 molar equivalents of IGN-01 (compound 18), IGN-02 (compound 19), or IGN-09 (compound 15) dissolved in acetonitrile (final acetonitrile concentration <2% by volume). The reaction was incubated at 15° C. (below TM of the dsDNA) and 10 μl aliquots are injected on reverse phase-HPLC at various time points after mixing
(§5) HPLC conditions: Waters Xbridge C8 2.1×50 mm column, Buffer A: 100 mM hexafluoroisopropanol, 16.3 mM triethylamine, in water, Buffer B: Methanol; 98% A→100% B over 32 min, 0.25 ml/min flow, 60° C. column heat, 260 nm detection. Areas under the curve (AUC) for the probe DNA peak and the resulting IGN/DNA adduct peak are used to determine the % crosslinking at each time point of incubation.
(§6) DNA annealing: single stranded DNA (Invitrogen) was annealed into dsDNA using a Peltier thermal cycler (PTC-200, MJ Research). 1 mM DNA in 100 mM TRIS, 1 mM EDTA pH 8 was heated to 80° C. and then gradually cooled to 4° C. over 90 min in 15 degree steps. The resulting dsDNA was kept at 4° C. until used in the assay.

[2] = system: double stranded DNA (dsDNA); assay: DNA probe assay for IGN dimer binding and alkylation to double stranded DNA; details: for binding and covalent adduct formation with double stranded DNA: dsDNA containing guanine residues on opposite strands
Experimental: as §4, §5, §6

COLO205-MDR = assay: In vitro cytotoxicity, multi-drug resistant COLO 205 MDR cells; type: cell-based, human; details: free compound; multi-drug resistant line vs COLO205
From the text: as §1
Conjugates of cell-binding agents with cytotoxic agents of the invention can be evaluated for their ability to suppress proliferation of various unwanted cell lines in vitro. […] Cells to be evaluated can be exposed to the compounds for 1-5 days and the surviving fractions of cells measured in direct assays by known methods. IC50 values can then be calculated from the results of the assays. […]
At the end of the incubation period cytotoxic potencies were then assessed using a WST-based cell viability assay and surviving cells were measured by developing with WST (2-7 hours). […]

RH30 cells = assay: In vitro cytotoxicity of conjugates, RH30 cells; type: cell-based, human
From the text: as §2
General Procedure Used: Samples of IGN Free Drugs or IGN Conjugates were added to 96-well flat bottomed tissue culture plates and titrated using serial dilutions to cover the desired molar range. Antigen positive (Ag+) or Antigen negative (Ag−) cells were added to the wells in specific cell densities in such a way that there were triplicate samples for each drug concentration for each corresponding cell line. […]
as §3

Molecule | IC50 (Ramos cells; Ramos) [pM] | covalent adduct formation with single stranded DNA [1] | binding and covalent adduct formation with double stranded DNA [2] | other results
COC(=O)CCCCOc1cc(COc2cc3c(cc2OC)C(=O)N2c4ccccc4C[C@H]2C=N3)cc(COc2cc3c(cc2OC)C(=O)N2c4ccccc4C[C@H]2C=N3)c1 [IGN03] | < 1 | – | – | –
COC(=O)COc1cc(COc2cc3c(cc2OC)C(=O)N2c4ccccc4C[C@H]2C=N3)cc(COc2cc3c(cc2OC)C(=O)N2c4ccccc4C[C@H]2C=N3)c1 [IGN05] | < 1 | – | – | –
COc1cc2c(cc1OCc1cccc(COc3cc4c(cc3OC)C(=O)N3c5ccccc5C[C@H]3C=N4)c1)N=C[C@@H]1Cc3ccccc3N1C2=O [IGN-01] | – | did not form covalent adducts | bind and covalently adduct | rate of DNA binding, dependence on DNA sequence ([2]; DNA with internal GATC motif vs GTAC sequence): binds faster to DNA containing an internal GATC motif; reaction with DNA probe substituted with deoxyInosine in place of guanine ([2]; probe containing no C-2 amino group): no reaction; IC50 (Ramos cells; free compounds with and without linker, Ramos cell line (Table 2)): < 1 pM
COc1cc2c(cc1OCc1cccc(COc3cc4c(cc3OC)C(=O)N3COC[C@H]3C=N4)c1)N=C[C@@H]1COCN1C2=O [IGN-02] | – | did not form covalent adducts | bind and covalently adduct | –
COc1cc2c(cc1OCCCOc1cc3c(cc1OC)C(=O)N1c4ccccc4C[C@H]1C=N3)N=C[C@@H]1Cc3ccccc3N1C2=O [IGN-09] | < 1 | did not form covalent adducts | bind and covalently adduct | fold higher IC50 on COLO205-MDR than COLO205 (COLO205-MDR): 4 fold
B1 | – | – | – | IC50 (RH30 cells; RH30 cells with an excess of unconjugated huN901 antibody): > 3000 pM; IC50 (RH30 cells; antigen positive RH30 cells): 15 pM

From patent US11505617B2, “Benzodiazepine derivatives” (IMMUNOGEN, INC., priority 2009, dated 2022)
